19 compounds from patent publication US20260015358A1, “BICYCLIC DERIVATIVES, COMPOSITIONS AND USES THEREOF” (Danatlas Pharmaceuticals Co., Ltd., priority 2023, published 2026) can be followed below.

For assay [1], the target named is T1, WRN [UniPro: Q14191 (WRN_HUMAN), N500-C946] (Homo sapiens (Human), UniProt Q14191). Kind of assay: WRN ATPase assay (ADP-Glo). Particulars: WRN enzymatic activity assay. In kind it is biochemical.
For assay [2], the target named is T1, WRN [UniPro: Q14191 (WRN_HUMAN), N500-C946]. Kind of assay: WRN unwinding assay (FORKF DNA, fluorescence). In kind it is biochemical. Particulars: Table 14.

pIC50: −log10 of the molar value. Some results are limits rather than exact numbers.

T1 sequence (Q14191 500-946): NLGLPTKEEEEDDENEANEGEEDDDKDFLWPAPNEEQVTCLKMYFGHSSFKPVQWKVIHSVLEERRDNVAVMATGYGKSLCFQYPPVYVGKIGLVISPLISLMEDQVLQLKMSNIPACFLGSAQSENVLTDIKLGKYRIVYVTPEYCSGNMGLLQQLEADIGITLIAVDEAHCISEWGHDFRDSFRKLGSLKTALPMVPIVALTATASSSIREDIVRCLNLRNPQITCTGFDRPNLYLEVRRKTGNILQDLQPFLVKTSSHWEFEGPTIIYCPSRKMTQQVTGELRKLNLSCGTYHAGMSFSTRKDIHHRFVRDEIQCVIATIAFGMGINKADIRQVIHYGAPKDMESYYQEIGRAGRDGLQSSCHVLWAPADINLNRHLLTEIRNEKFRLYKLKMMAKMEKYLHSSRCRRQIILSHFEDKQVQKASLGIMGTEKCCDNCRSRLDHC

Consider `CCc1c(N2CCN(C(=O)CNC(=O)C3CC3)CC2)c(=O)n2nc(C3=CCOCC3)nc2n1CC(=O)Nc1ccc(C(F)(F)F)cc1Cl` [Example 165, N-(2-(4-(4-(2-((2-Chloro-4-(trifluoromethyl)phenyl)amino)-2-oxoethyl)-2-(3,6-dihydro-2H-pyran-4-yl)-5-ethyl-7-oxo-4,7-dihydro-[1,2,4]triazolo[1,5-a]pyrimidin-6-yl)piperazin-1-yl)-2-oxoethyl)cyclopropanecarboxamide], for which the pIC50 in assay [1] and in assay [2] was greater than 7.00 throughout.

Take `CCc1c(N2CCN(C(=O)CNC(=O)N3CCCC3)CC2)c(=O)n2nc(C3=CCOCC3)nc2n1CC(=O)Nc1ccc(C(F)(F)F)cc1Cl` [Example 166, N-(2-(4-(4-(2-((2-Chloro-4-(trifluoromethyl)phenyl)amino)-2-oxoethyl)-2-(3,6-dihydro-2H-pyran-4-yl)-5-ethyl-7-oxo-4,7-dihydro-[1,2,4]triazolo[1,5-a]pyrimidin-6-yl)piperazin-1-yl)-2-oxoethyl)pyrrolidine-1-carboxamide]: the pIC50 (usually −log10 of the IC50, conventionally taken in molar units) is 6.00 to 7.00 in assay [1] and greater than 7.00 in assay [2].

As to `CCOC(=O)NCC(=O)N1CCN(c2c(CC)n(CC(=O)Nc3ccc(C(F)(F)F)cc3Cl)c3nc(C4=CCOCC4)nn3c2=O)CC1` [Example 167, Ethyl (2-(4-(4-(2-((2-chloro-4-(trifluoromethyl)phenyl)amino)-2-oxoethyl)-2-(3,6-dihydro-2H-pyran-4-yl)-5-ethyl-7-oxo-4,7-dihydro-[1,2,4]triazolo[1,5-a]pyrimidin-6-yl)piperazin-1-yl)-2-oxoethyl)carbamate], the pIC50 in assay [1] and in assay [2] was greater than 7.00 in each case.

Consider `CCc1c(N2CCN(C(=O)CNC(C)=O)CC2)c(=O)n2nc(C3=CCOCC3)nc2n1CC(=O)Nc1ccc(C(F)(F)F)cc1Cl` [Example 168, 2-(6-(4-(Acetylglycyl)piperazin-1-yl)-2-(3,6-dihydro-2H-pyran-4-yl)-5-ethyl-7-oxo-[1,2,4]triazolo[1,5-a]pyrimidin-4(7H)-yl)-N-(2-chloro-4-(trifluoromethyl)phenyl)acetamide], for which the pIC50 in assay [1] and in assay [2] was greater than 7.00 throughout.

Regarding `CCc1c(N2CCN(C(=O)CNC(=O)C(C)(C)C)CC2)c(=O)n2nc(C3=CCOCC3)nc2n1CC(=O)Nc1ccc(C(F)(F)F)cc1Cl` [Example 169, N-(2-(4-(4-(2-((2-Chloro-4-(trifluoromethyl)phenyl)amino)-2-oxoethyl)-2-(3,6-dihydro-2H-pyran-4-yl)-5-ethyl-7-oxo-4,7-dihydro-[1,2,4]triazolo[1,5-a]pyrimidin-6-yl)piperazin-1-yl)-2-oxoethyl)pivalamide], the pIC50 in assay [1] is 6.00 to 7.00; in assay [2], greater than 7.00.

Take `CCc1c(N2CCN(C(=O)CNS(C)(=O)=O)CC2)c(=O)n2nc(C3=CCOCC3)nc2n1CC(=O)Nc1ccc(C(F)(F)F)cc1Cl` [Example 170, N-(2-Chloro-4-(trifluoromethyl)phenyl)-2-(2-(3,6-dihydro-2H-pyran-4-yl)-5-ethyl-6-(4-((methylsulfonyl)glycyl)piperazin-1-yl)-7-oxo-[1,2,4]triazolo[1,5-a]pyrimidin-4(7H)-yl)acetamide]: the negative-log IC50 (pIC50) in assay [1] and in assay [2] was 6.00 to 7.00 in each case.

For `CCc1c(N2CCN(C(=O)CNS(=O)(=O)c3ccccc3)CC2)c(=O)n2nc(C3=CCOCC3)nc2n1CC(=O)Nc1ccc(C(F)(F)F)cc1Cl` [Example 171, N-(2-Chloro-4-(trifluoromethyl)phenyl)-2-(2-(3,6-dihydro-2H-pyran-4-yl)-5-ethyl-7-oxo-6-(4-(2-(phenylsulfonamido)acetyl)piperazin-1-yl)-[1,2,4]triazolo[1,5-a]pyrimidin-4(7H)-yl)acetamide], the pIC50 in assay [1] and in assay [2] was 6.00 to 7.00 throughout.

On to `CCc1c(N2CCN(C(=O)CNC(=O)N(C)C)CC2)c(=O)n2nc(C3=CCOCC3)nc2n1CC(=O)Nc1ccc(C(F)(F)F)cc1Cl` [Example 173, N-(2-Chloro-4-(trifluoromethyl)phenyl)-2-(2-(3,6-dihydro-2H-pyran-4-yl)-6-(4-((dimethylcarbamoyl)glycyl)piperazin-1-yl)-5-ethyl-7-oxo-[1,2,4]triazolo[1,5-a]pyrimidin-4(7H)-yl)acetamide], for which the pIC50 in assay [1] and in assay [2] was 6.00 to 7.00 in each case.

For the compound `CCc1c(N2CCN(C(=O)CNC(=O)COC)CC2)c(=O)n2nc(C3=CCOCC3)nc2n1CC(=O)Nc1ccc(C(F)(F)F)cc1Cl` [Example 174, N-(2-Chloro-4-(trifluoromethyl)phenyl)-2-(2-(3,6-dihydro-2H-pyran-4-yl)-5-ethyl-6-(4-((2-methoxyacetyl)glycyl)piperazin-1-yl)-7-oxo-[1,2,4]triazolo[1,5-a]pyrimidin-4(7H)-yl)acetamide], the pIC50 in assay [1] and in assay [2] was greater than 7.00 throughout.

On to `CCc1c(N2CCN(C(=O)CNC(=O)c3ccc(C(F)(F)F)cc3)CC2)c(=O)n2nc(C3=CCOCC3)nc2n1CC(=O)Nc1ccc(C(F)(F)F)cc1Cl` [Example 176, N-(2-(4-(4-(2-((2-Chloro-4-(trifluoromethyl)phenyl)amino)-2-oxoethyl)-2-(3,6-dihydro-2H-pyran-4-yl)-5-ethyl-7-oxo-4,7-dihydro-[1,2,4]triazolo[1,5-a]Pyrimidin-6-yl)piperazin-1-yl)-2-oxoethyl)-4-(trifluoromethyl)benzamide], for which the negative logarithm of the IC50 (pIC50) in assay [1] and in assay [2] was 6.00 to 7.00 throughout.

Consider `CCc1c(N2CCN(C(=O)CNC(=O)Cc3ccc(F)cc3)CC2)c(=O)n2nc(C3=CCOCC3)nc2n1CC(=O)Nc1ccc(C(F)(F)F)cc1Cl` [Example 177, N-(2-Chloro-4-(trifluoromethyl)phenyl)-2-(2-(3,6-dihydro-2H-pyran-4-yl)-5-ethyl-6-(4-((2-(4-fluorophenyl)acetyl)glycyl)piperazin-1-yl)-7-oxo-[1,2,4]triazolo[1,5-a]pyrimidin-4(7H)-yl)acetamide], for which the pIC50 in assay [1] and in assay [2] was greater than 7.00 in each case.

In the case of `CCc1c(N2CCN(C(=O)CNC(=O)Nc3ccccc3)CC2)c(=O)n2nc(C3=CCOCC3)nc2n1CC(=O)Nc1ccc(C(F)(F)F)cc1Cl` [Example 178, N-(2-Chloro-4-(trifluoromethyl)phenyl)-2-(2-(3,6-dihydro-2H-pyran-4-yl)-5-ethyl-7-oxo-6-(4-((phenylcarbamoyl)glycyl)piperazin-1-yl)-[1,2,4]triazolo[1,5-a]pyrimidin-4 (7H)-yl)acetamide], the pIC50 in assay [1] and in assay [2] was greater than 7.00 each time.

`CCc1c(N2CCN(C(=O)CNC(=O)Nc3cc(F)cc(F)c3)CC2)c(=O)n2nc(C3=CCOCC3)nc2n1CC(=O)Nc1ccc(C(F)(F)F)cc1Cl` [Example 179, N-(2-Chloro-4-(trifluoromethyl)phenyl)-2-(6-(4-(((3,5-difluorophenyl)carbamoyl)glycyl)piperazin-1-yl)-2-(3,6-dihydro-2H-pyran-4-yl)-5-ethyl-7-oxo-[1,2,4]triazolo[1,5-a]pyrimidin-4(7H)-yl)acetamide]: the pIC50 in assay [1] and in assay [2] was greater than 7.00 in each case.

Take `CCc1c(N2CCN(C(=O)CNC(=O)Nc3ccccc3F)CC2)c(=O)n2nc(C3=CCOCC3)nc2n1CC(=O)Nc1ccc(C(F)(F)F)cc1Cl` [Example 180, N-(2-Chloro-4-(trifluoromethyl)phenyl)-2-(2-(3,6-dihydro-2H-pyran-4-yl)-5-ethyl-6-(4-(((2-fluorophenyl)carbamoyl)glycyl)piperazin-1-yl)-7-oxo-[1,2,4]triazolo[1,5-a]pyrimidin-4(7H)-yl)acetamide]: the pIC50 in assay [1] and in assay [2] was greater than 7.00 each time.

On to `CCc1c(N2CCN(C(=O)CNC(=O)Nc3ccccc3Cl)CC2)c(=O)n2nc(C3=CCOCC3)nc2n1CC(=O)Nc1ccc(C(F)(F)F)cc1Cl` [Example 181, N-(2-Chloro-4-(trifluoromethyl)phenyl)-2-(6-(4-(((2-chlorophenyl)carbamoyl)glycyl)piperazin-1-yl)-2-(3,6-dihydro-2H-pyran-4-yl)-5-ethyl-7-oxo-[1,2,4]triazolo[1,5-a]pyrimidin-4(7H)-yl)acetamide], for which the pIC50 in assay [1] and in assay [2] was greater than 7.00 throughout.

Take `CCc1c(N2CCN(C(=O)CNC(=O)N3CCc4ccccc43)CC2)c(=O)n2nc(C3=CCOCC3)nc2n1CC(=O)Nc1ccc(C(F)(F)F)cc1Cl` [Example 182, N-(2-(4-(4-(2-((2-Chloro-4-(trifluoromethyl)phenyl)amino)-2-oxoethyl)-2-(3,6-dihydro-2H-pyran-4-yl)-5-ethyl-7-oxo-4,7-dihydro-[1,2,4]triazolo[1,5-a]pyrimidin-6-yl)piperazin-1-yl)-2-oxoethyl) indoline-1-carboxamide]: the pIC50 in assay [1] and in assay [2] was greater than 7.00 throughout.

`CCc1c(N2CCN(C(=O)CNC(=O)NCc3ccccc3)CC2)c(=O)n2nc(C3=CCOCC3)nc2n1CC(=O)Nc1ccc(C(F)(F)F)cc1Cl` [Example 183, 2-(6-(4-((Benzylcarbamoyl)glycyl)piperazin-1-yl)-2-(3,6-dihydro-2H-pyran-4-yl)-5-ethyl-7-oxo-[1,2,4]triazolo[1,5-a]pyrimidin-4(7H)-yl)-N-(2-chloro-4-(trifluoromethyl)phenyl)acetamide]: the pIC50 in assay [1] and in assay [2] was greater than 7.00 each time.

On to `CCc1c(N2CCN(C(=O)CNC(=O)NC3CC3)CC2)c(=O)n2nc(C3=CCOCC3)nc2n1CC(=O)Nc1ccc(C(F)(F)F)cc1Cl` [Example 184, N-(2-Chloro-4-(trifluoromethyl)phenyl)-2-(6-(4-((cyclopropylcarbamoyl)glycyl)piperazin-1-yl)-2-(3,6-dihydro-2H-pyran-4-yl)-5-ethyl-7-oxo-[1,2,4]triazolo[1,5-a]pyrimidin-4(7H)-yl)acetamide], for which the pIC50 in assay [1] and in assay [2] was greater than 7.00 each time.

Take `CCc1c(N2CCN(C(=O)CNC(=O)N3Cc4ccccc4C3)CC2)c(=O)n2nc(C3=CCOCC3)nc2n1CC(=O)Nc1ccc(C(F)(F)F)cc1Cl` [Example 185, N-(2-(4-(4-(2-((2-Chloro-4-(trifluoromethyl)phenyl)amino)-2-oxoethyl)-2-(3,6-dihydro-2H-pyran-4-yl)-5-ethyl-7-oxo-4,7-dihydro-[1,2,4]triazolo[1,5-a]pyrimidin-6-yl)piperazin-1-yl)-2-oxoethyl)isoindoline-2-carboxamide]: the pIC50 in assay [1] and in assay [2] was greater than 7.00 throughout.
